System: mRNA expression in peripheral blood of individuals with DMD
Experiment: Whole-blood gene expression microarray: DMD administered deflazacort vs DMD administered prednisone
Format: in vivo, human
Experimental: Fifteen ml of blood was collected from each individual into 6 PAXgene® Vacutainer® tubes (PreAnalytiX, Germany) by antecubital fossa venipuncture. PAXgene® tubes contain a proprietary reagent that immediately stabilizes RNA, thus reducing RNA degradation and minimizing gene expression changes following phlebotomy. The tubes were then inverted 20 times, then remained undisturbed for 2 h at room temperature (about 19° C. to about 22° C.), and then stored at -70° C. until processed. Total RNA was isolated using the Paxgene® blood RNA kit (PreAnalytiX, Germany) according to the manufacturers instructions. The RNA isolated is from all cells in whole blood. Typical yields of total RNA isolated from about 7.5 ml of human whole blood were between 10 μg RNA and 40 μg RNA. RNA quality and purity was analyzed by spectrophotometry using the Nanodrop ND-1000, and RNA integrity was analyzed using the Agilent 2100 Bioanalyzer. […] Sample labeling, hybridization to chips, and image scanning were performed using standard Affymetrix protocols. For each whole blood sample from control individuals and individuals with DMD, total RNA was labeled using the One-Cycle Target Labeling protocol and hybridized to the arrays. […] Double-stranded cDNA synthesis, biotin-labeled cRNA synthesis, and cRNA fragmentation were performed according to the Affymetrix GeneChip Eukaryotic Expression Analysis protocol. The labeled, fragmented cRNA (15 μg) was hybridized at 45° C. overnight. After hybridization, the array was washed and stained. The arrays were scanned with an argon-ion laser at λ=570 nm, with a resolution of 3 μm/pixel (Affymetrix, Inc.). After scanning the array, the raw probe level values for each probe were saved in Affymetrix.cel files. […] Statistical analyses, including t-test analyses, unsupervised hierarchical clustering, and principal component analyses were conducted using Genespring 7.2 software ([…]® 7, Silicon Genetics, Redwood City Calif.). […] Corrections for multiple comparisons used a Benjamini-Hochberg False Discovery Rate (FDR) of 0.05, disclosed in Tang et al., J Cereb Blood Flow Metab 26 (2006) 1089, which is expressly incorporated by reference herein in its entirety. […] Sample processing and array hybridization, probe-level data analysis, and statistical analysis were identical to Example 1.

`CC(=O)OCC(=O)[C@@]12N=C(C)O[C@@H]1C[C@H]1[C@@H]3CCC4=CC(=O)C=C[C@]4(C)[C@H]3[C@@H](O)C[C@@]12C` [deflazacort] was tested, and the p-value (gene PECAM1, Genbank AA702701, Nucleic Acid No. 2155) was 0.00909, the p-value (gene PECAM1, Genbank M37780, Nucleic Acid No. 2154) was 0.00421 and the p-value (gene PF4V1, Genbank NM_002620, Nucleic Acid No. 2156) was 0.0164. The p-value (gene PFKFB3, Genbank NM_004566, Nucleic Acid No. 2157) was 0.0338, the p-value (gene PHACTR2, Genbank AA551142, Nucleic Acid No. 2158) was 0.039 and the p-value (gene PHACTR2, Genbank NM_014721, Nucleic Acid No. 2159) was 0.0451. The p-value (gene PHCA, Genbank R12678, Nucleic Acid No. 2160) was 0.0221, the p-value (gene PHF21A, Genbank BC015714, Nucleic Acid No. 2161) was 0.0231 and the p-value (gene PHGDHL1, Genbank AF339764, Nucleic Acid No. 2162) was 0.0444. For the same molecule, the p-value (gene PIAS1, Genbank AI732802, Nucleic Acid No. 2163) was 0.0349, the p-value (gene PICALM, Genbank AL135735, Nucleic Acid No. 2164) was 0.0165 and the p-value (gene PICALM, Genbank AV722190, Nucleic Acid No. 762) was 0.0363. For the same molecule, the p-value (gene PLEK, Genbank NM_002664, Nucleic Acid No. 2165) was 0.000252, the p-value (gene PLEKHA2, Genbank BF347859, Nucleic Acid No. 886) was 0.0183 and the p-value (gene PLEKHM1, Genbank AB002354, Nucleic Acid No. 2166) was 0.0134. It also gave a p-value (gene PLSCR1, Genbank AI825926, Nucleic Acid No. 2167) of 0.0487, a p-value (gene PLXNB2, Genbank BC004542, Nucleic Acid No. 2168) of 0.0177 and a p-value (gene PPGB, Genbank NM_000308, Nucleic Acid No. 2170) of 0.0193. It also gave a p-value (gene PPIG, Genbank AW970944, Nucleic Acid No. 2171) of 0.011, a p-value (gene PPM1F, Genbank BC013798, Nucleic Acid No. 2172) of 0.0208 and a p-value (gene PPP3CA, Genbank AA532718, Nucleic Acid No. 2173) of 0.0165. The p-value (gene PRKACA, Genbank NM_002730, Nucleic Acid No. 2174) was 0.00184, the p-value (gene PRKAR1A, Genbank AI682905, Nucleic Acid No. 2175) was 0.0262 and the p-value (gene PRKAR2B, Genbank NM_002736, Nucleic Acid No. 1688) was 0.0441. It also gave a p-value (gene PRKCD, Genbank NM_006254, Nucleic Acid No. 2176) of 0.0077, a p-value (gene PROK2, Genbank AF182069, Nucleic Acid No. 2177) of 0.0338 and a p-value (gene PSENEN, Genbank NM_018468, Nucleic Acid No. 2178) of 0.0201. The p-value (gene PTGS1, Genbank NM_000962, Nucleic Acid No. 329 (first entry)) was 0.0419, the p-value (gene PTGS1, Genbank NM_000962, Nucleic Acid No. 329 (second entry)) was 0.0226 and the p-value (gene PTGS1, Genbank S36219, Nucleic Acid No. 1667) was 0.0474. The p-value (gene PTGS2, Genbank AY151286, Nucleic Acid No. 2179) was 0.0187, the p-value (gene PTPN12, Genbank AL079909, Nucleic Acid No. 2180) was 0.00163 and the p-value (gene PTPRE, Genbank AA775177, Nucleic Acid No. 2181) was 0.0161. The p-value (gene RAB8A, Genbank BC002977, Nucleic Acid No. 2185) was 0.00561, the p-value (gene RAB11FIP1, Genbank NM_025151, Nucleic Acid No. 2182) was 0.0397 and the p-value (gene RAB11FIP4, Genbank BG248313, Nucleic Acid No. 465) was 0.047. It also gave a p-value (gene RAB18, Genbank AU145607, Nucleic Acid No. 2183) of 0.0414, a p-value (gene RAB31, Genbank NM_006868, Nucleic Acid No. 2184) of 0.0378 and a p-value (gene RAC1, Genbank AJ012502, Nucleic Acid No. 551) of 0.0328. For the same molecule, the p-value (gene RAI17, Genbank AF070622, Nucleic Acid No. 1313) was 0.0318, the p-value (gene RAP1A, Genbank AW793677, Nucleic Acid No. 2186) was 0.0194 and the p-value (gene RAP80, Genbank AF113675, Nucleic Acid No. 2187) was 0.00717. It also gave a p-value (gene RARA, Genbank AJ417079, Nucleic Acid No. 2188) of 0.00262, a p-value (gene RASA1, Genbank AK021812, Nucleic Acid No. 2189) of 0.0372 and a p-value (gene RBBP5, Genbank NM_005057, Nucleic Acid No. 2190) of 0.0383. The p-value (gene REL, Genbank NM_002908, Nucleic Acid No. 2191) was 0.0166, the p-value (gene RERE, Genbank H71242, Nucleic Acid No. 2192) was 0.0354 and the p-value (gene RFWD2, Genbank BF725688, Nucleic Acid No. 2193) was 0.0334. The p-value (gene RFX2, Genbank AK024288, Nucleic Acid No. 2194) was 0.0472, the p-value (gene RG9MTD3, Genbank AI214944, Nucleic Acid No. 2195) was 0.0449 and the p-value (gene RHOQ, Genbank BC033251, Nucleic Acid No. 2196) was 0.0402. The p-value (gene RIN3, Genbank AA625133, Nucleic Acid No. 2197) was 0.0322, the p-value (gene RIT1, Genbank AL037450, Nucleic Acid No. 1675) was 0.0214 and the p-value (gene RNF24, Genbank BC000213, Nucleic Acid No. 2198) was 0.0415. For the same molecule, the p-value (gene ROCK1, Genbank AL050032, Nucleic Acid No. 2199) was 0.0356, the p-value (gene RSU1, Genbank AW515913, Nucleic Acid No. 2200) was 0.0152 and the p-value (gene RUFY1, Genbank NM_025158, Nucleic Acid No. 2201) was 0.0258. It also gave a p-value (gene RUFY2, Genbank NM_017987, Nucleic Acid No. 2202) of 0.00853, a p-value (gene SEC14L1, Genbank NM_003003, Nucleic Acid No. 2203) of 0.0303 and a p-value (gene SEC23B, Genbank BC005032, Nucleic Acid No. 2204) of 0.0301. For the same molecule, the p-value (gene SECTM1, Genbank BF939675, Nucleic Acid No. 2205) was 0.0499, the p-value (gene SERPINA1, Genbank AF119873, Nucleic Acid No. 2207) was 0.0459 and the p-value (gene SERPINA1, Genbank NM_000295, Nucleic Acid No. 2206) was 0.022. For the same molecule, the p-value (gene SF3A2, Genbank L21990, Nucleic Acid No. 2208) was 0.0469, the p-value (gene SGK, Genbank NM_005627, Nucleic Acid No. 2209) was 0.028 and the p-value (gene SH3BGRL2, Genbank AL035700, Nucleic Acid No. 1736) was 0.0258. The p-value (gene pp9099, Genbank NM_025201, Nucleic Acid No. 2169) was 0.0311 and the “number of genes significantly up-regulated” value (of the 508 genes, deflazacort compared to prednisone) was 30 genes.

From patent publication US20110217715A1, “GENE EXPRESSION IN DUCHENNE MUSCULAR DYSTROPHY” (CHILDREN'S HOSPITAL MEDICAL CENTER, priority 2008, published 2011)
